Patent publication US10329305B2, “Amorphous solid form of a BET protein inhibitor” (Incyte Corporation, priority 2015, dated 2019)
In brackets after ≈: the same amount, converted by molar mass.

How the values were obtained:
Assay type in all cases: physicochemical
[1] = Stability of amorphous Compound 1-(S) under elevated temperature and humidity (Karl-Fischer water content, HPLC/UV purity, XRPD); details: for Solid Form (XRPD) / Purity 220 nm / Purity 254 nm / Water content: open vial; for Purity 220 nm / Purity 254 nm: HPLC/UV; for Water content: Karl-Fischer
Method: Table 1 indicates the conditions/time to which the amorphous form was subjected and provides the measured water content (Karl-Fischer analysis) and purity (by HPLC/UV). The HPLC/UV instrument was Agilent HPLC 1100 with an Agilent Zorbax SB-C18, 3.5 μm, 4.6×150 mm column. The HPLC conditions were as follows: column temperature: 40° C.; mobile phase A (MPA): 0.05% (v/v) trifluoroacetic acid (TFA) in water; mobile phase B (MPB): 0.05% (v/v) TFA in acetonitrile; and flow rate: 1 mL/min.
The gradient conditions were as follows: […]

[2] = Formulation of amorphous Compound 1-(S): solubility in vehicles; details: for solubility: aqueous with cosolvent or surfactant or cyclodextrin, thermodynamic from solid
Text: Amorphous Compound 1-(S) was formulated as described in the table below. Table 2 indicates the target concentration, final pH, solubility, and some observation of the resulting formulations.

[3] = Glass transition temperature by modulated DSC (MDSC); details: ramp rate 2° C./min, 10-150° C.
Method: The glass transition temperature (Tg) was determined to be 105.8° C. by modulated DSC (MDSC) using TA Instruments Differential Scanning calorimetry, Model Q2000 with autosampler. The MDSC instrument conditions were as follows: modulation temperature amplitude: ±1° C.; modulation: 60 second; ramp rate: 2° C./min; temperature range: 10-150° C.; Tzero aluminum sample pan and lid; and nitrogen gas flow at 50 mL/min.

Solid Form (XRPD) ([1]; 40° C./75% RH, 0 weeks): Amorphous | Purity 220 nm ([1]; 40° C./75% RH, 0 weeks): 98.22% | Purity 254 nm ([1]; 40° C./75% RH, 0 weeks): 97.10% | Water content ([1]; 40° C./75% RH, 0 weeks): 1.67% | Purity 220 nm ([1]; 40° C./75% RH, 1 week): 98.22% | Purity 254 nm ([1]; 40° C./75% RH, 1 week): 97.10% | Water content ([1]; 40° C./75% RH, 1 week): 3.39% | Solid Form (XRPD) ([1]; 40° C./75% RH, 2 weeks): Amorphous | Purity 220 nm ([1]; 40° C./75% RH, 2 weeks): 98.18% | Purity 254 nm ([1]; 40° C./75% RH, 2 weeks): 97.10% | Water content ([1]; 40° C./75% RH, 2 weeks): 2.64% | Solid Form (XRPD) ([1]; 50° C., 0 weeks): Amorphous | Purity 220 nm ([1]; 50° C., 0 weeks): 98.22% | Purity 254 nm ([1]; 50° C., 0 weeks): 97.10% | Water content ([1]; 50° C., 0 weeks): 1.67% | Purity 220 nm ([1]; 50° C., 1 week): 98.12% | Purity 254 nm ([1]; 50° C., 1 week): 97.11% | Water content ([1]; 50° C., 1 week): 0.69% | Solid Form (XRPD) ([1]; 50° C., 2 weeks): Amorphous | Purity 220 nm ([1]; 50° C., 2 weeks): 98.23% | Purity 254 nm ([1]; 50° C., 2 weeks): 97.11% | Water content ([1]; 50° C., 2 weeks): 0.43% | physical stability ([1]; elevated temperature and humidity): physically stable | Observations ([2]; 0.5% MC in 50 mM citrate, pH 3.0, target concentration 0.5 mg/mL): solution | Observations ([2]; 0.5% MC in 50 mM citrate, pH 3.0, target concentration 2.5 mg/mL): suspension | Observations ([2]; 0.5% MC in water, target concentration 0.5 mg/mL): solution | Observations ([2]; 0.5% MC in water, target concentration 2.5 mg/mL): suspension | Observations ([2]; 10% TPGS in 50 mM citrate, pH 3.0, target concentration 2.5 mg/mL): solution | solubility ([2]; 0.5% MC in 50 mM citrate, pH 3.0, target concentration 0.5 mg/mL, final pH 3.00): > 500 µg/mL | solubility ([2]; 0.5% MC in 50 mM citrate, pH 3.0, target concentration 2.5 mg/mL, final pH 3.03): 1150 µg/mL (≈ 3300 µM) | solubility ([2]; 0.5% MC in water, target concentration 0.5 mg/mL, final pH 6.76): > 500 µg/mL | solubility ([2]; 0.5% MC in water, target concentration 2.5 mg/mL, final pH 7.87): 842 µg/mL (≈ 2420 µM) | solubility ([2]; 10% TPGS in 50 mM citrate, pH 3.0, target concentration 2.5 mg/mL, final pH 3.07): > 2500 µg/mL | glass transition temperature (Tg) [3]: 105.8 °C
Compound: Cc1noc(C)c1-c1ccc2[nH]c(=O)n3c2c1OC[C@@H]3c1ccccn1 [Amorphous Compound 1-(S), (4S)-7-(3,5-dimethylisoxazol-4-yl)-4-pyridin-2-yl-4,5-dihydroimidazo[1,5,4-de][1,4]benzoxazin-2(1H)-one]
